# Measurements reported in patent publication US8410106B2, “Hydrazine-substituted anthranilic acid derivatives” (Bayer Cropscience AG, priority 2010, dated 2013).
# Where two headings read alike, the source gives them in different places.
# Tests used:
# [1] = tested on: larvae of the mustard beetle (Phaedon cochleariae); assay: Phaedon test (PHAECO spray treatment); settings: in Brassica rapa, foliar, 168 h, read-out: activity (beetle larvae killed)
# [2] = tested on: caterpillars of the army worm (Spodoptera frugiperda); assay: Spodoptera frugiperda test (SPODFR spray treatment); assay type: in vivo; settings: foliar, 168 h, read-out: activity (caterpillars killed)
# [3] = logP determination by HPLC on reversed-phase columns (C 18), EEC Directive 79/831 Annex V.A8; assay type: physicochemical
# [4] = tested on: greenhouse red spidermite (Tetranychus urticae); assay: Tetranychus test, OP-resistant (TETRUR spray treatment); assay type: in vivo; settings: after 6 days, bean leaf discs
# Protocol: (§1) After 6 days the activity is determined, in %.
# [5] = tested on: green peach aphid (Myzus persicae); assay: Myzus test (MYZUPE spray treatment); assay type: in vivo; settings: foliar, 144 h, read-out: activity (aphids killed)
# Protocol: as §1
# [6] = application rate 100 g/ha, after 7 days, maize leaf discs, spray
# [7] = HPLC, reversed-phase C 18, table value without method mark, read-out: logP
# [8] = application rate 100 g/ha, after 6 days, Chinese cabbage leaf discs, spray
Compound,pest or weed control at 100 g/ha [1] [%],"pest or weed control at 100 g/ha [2, 6] [%]","chromatographic logP [3, 7]",activity (mites killed) ([4]; application rate 100 g/ha) [%],pest or weed control at 100 g/ha ([2]; in Zea mays) [%],pest or weed control at 100 g/ha ([5]; in Brassica rapa) [%],chromatographic logP [3],"pest or weed control at 100 g/ha [5, 8] [%]",activity (mites killed) ([4]; application rate 500 g/ha) [%]
COC(=O)N(C)NC(=O)c1cc(Cl)cc(C)c1NC(=O)c1cc(Cn2nnc(C(F)(F)F)n2)nn1-c1ncccc1C#N [Example 59],100,100,2.73,100,–,–,–,–,–
COC(=O)N(C)NC(=O)c1cc(C(F)(F)F)cc(C)c1NC(=O)c1cc(Cn2nnc(C(F)(F)F)n2)nn1-c1ncccc1Cl [Example 60],100,–,–,–,100,100,3.17,–,–
COC(=O)N(C)NC(=O)c1cc(C(F)(F)F)cc(C)c1NC(=O)c1cc(Cn2nnc(C(F)(F)C(F)(F)F)n2)nn1-c1ncccc1Cl [Example 61],100,100,3.55,–,–,–,–,90,–
COC(=O)N(C)NC(=O)c1cc(C#N)cc(C)c1NC(=O)c1cc(Cn2nc(C(F)F)cc2C(F)F)nn1-c1ncccc1Cl [Example 63],100,–,–,–,100,100,2.59,–,–
COC(=O)N(C)NC(=O)c1cc(Cl)cc(Cl)c1NC(=O)c1cc(Cn2nc(C(F)(F)F)cc2C)nn1-c1ncccc1Cl [Example 66],100,–,–,–,100,100,3.1,–,–
COC(=O)N(C)NC(=O)c1cc(Cl)cc(Cl)c1NC(=O)c1cc(Cn2nc(OC)n(C)c2=O)nn1-c1ncccc1Cl [Example 67],–,–,–,–,–,–,1.9,–,100
COC(=O)N(C)NC(=O)c1cc(Cl)cc(C)c1NC(=O)c1cc(Cn2nc(C(F)(F)C(F)(F)C(F)(F)F)cc2C)nn1-c1ncccc1Cl [Example 68],100,–,3.82,–,100,100,–,–,–
COC(=O)N(C)NC(=O)c1cc(I)cc(C)c1NC(=O)c1cc(Cn2cnc(C(F)(F)F)n2)nn1-c1ncccc1Cl [Example 69],100,–,–,–,100,100,2.71,–,–
COC(=O)N(C)NC(=O)c1cc(I)cc(C)c1NC(=O)c1cc(Cn2nnnc2C(F)(F)F)nn1-c1ncccc1Cl [Example 72],100,–,–,–,100,100,2.78,–,–
COC(=O)N(C)NC(=O)c1cc(C#N)cc(C)c1NC(=O)c1cc(Cn2nnc(C(F)(F)C(F)(F)F)n2)nn1-c1ncccc1Cl [Example 73],100,100,2.97,–,–,–,–,100,–
COC(=O)N(C)NC(=O)c1cc(I)cc(C)c1NC(=O)c1cc(Cn2nnc(C(F)F)n2)nn1-c1ncccc1Cl [Example 74],100,–,–,–,100,100,2.64,–,–
COC(=O)N(C)NC(=O)c1cc(F)cc(C)c1NC(=O)c1cc(Cn2nnc(C(F)F)n2)nn1-c1ncccc1Cl [Example 75],100,–,–,–,100,100,2.19,–,–
COC(=O)N(C)N(C)C(=O)c1cc(C#N)cc(C)c1NC(=O)c1cc(Cn2nnc(C(F)(C(F)(F)F)C(F)(F)F)n2)nn1-c1ncccc1Cl [Example 79],100,100,3.66,–,–,–,–,100,–
COC(=O)N(C)NC(=O)c1cc(I)cc(C)c1NC(=O)c1cc(Cn2nnc(C(F)(F)C(F)(F)C(F)(F)F)n2)nn1-c1ncccc1Cl [Example 81],100,–,3.85,–,100,80,–,–,–
COC(=O)N(C)N(C)C(=O)c1cc(C#N)cc(C)c1NC(=O)c1cc(Cn2nnc(C(F)(F)C(F)(F)C(F)(F)F)n2)nn1-c1ncccc1Cl [Example 82],100,–,3.67,–,100,100,–,–,–
COC(=O)N(C)NC(=O)c1cc(Cl)cc(C)c1NC(=O)c1cc(Cn2nnc(C(F)(F)F)n2)nn1-c1ccccc1Cl [Example 85],100,100,3.34,–,–,–,–,100,–
